Measurements: the supplement of paper PMC11061612

Key:
Assay in all cases: combination Emax (second highest fraction inhibited in the dose matrix, 72 h); higher = more inhibition; extreme values may be limits of the assay
[1] = system: NCI-H322M (Lung Adenocarcinoma)
Procedure, shortened: (§1)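 Cell lines grown in DMEM/F12 or RPMI with 10% FBS were plated in 1536-well plates and held 24 hours at 37°C, 5% CO2 before 72 hours of exposure to two-drug dose matrices, with DMSO typically at 0.2%. CellTiter-Glo 2.0 luminescence gave viability, which was converted to inhibition. Vehicle wells were set to 0 and blank wells to 1. Combination Emax is the second-highest inhibition in the matrix, and Bliss excess is the observed combination effect minus the expected EA + EB − EA·EB, where EA and EB are the single-agent effects.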

EW-18 (Ewing's Sarcoma) = system: EW-18 (Ewing's Sarcoma)
Procedure, shortened: as §1

U-87-MG (Glioblastoma) = system: U-87-MG (Glioblastoma)
Procedure, shortened: as §1

[2] = system: KYSE-150 (Esophageal Squamous Cell Carcinoma)
Procedure, shortened: as §1

[3] = system: OVISE (Ovarian Carcinoma)
Procedure, shortened: as §1

[4] = system: HC-1 (Other Blood Carcinomas)
Procedure, shortened: as §1

[5] = system: EMC-BAC-2 (Non-Small Cell Lung Carcinoma)
Procedure, shortened: as §1

[6] = system: LC4-1 (B-Lymphoblastic Leukemia)
Procedure, shortened: as §1

[7] = system: OCUB-M (Breast Carcinoma)
Procedure, shortened: as §1

[8] = system: JHH-7 (Hepatocellular Carcinoma)
Procedure, shortened: as §1

[9] = system: NCI-H1573 (Lung Adenocarcinoma)
Procedure, shortened: as §1

[10] = system: LOU-NH91 (Squamous Cell Lung Carcinoma)
Procedure, shortened: as §1

[11] = system: PFSK-1 (Other Solid Carcinomas)
Procedure, shortened: as §1

EW-3 (Ewing's Sarcoma) = system: EW-3 (Ewing's Sarcoma)
Procedure, shortened: as §1

| SMILES | combination Emax [1] | combination Emax (EW-18 (Ewing's Sarcoma)) | combination Emax (U-87-MG (Glioblastoma)) | combination Emax [2] | combination Emax [3] | combination Emax [4] | combination Emax [5] | combination Emax [6] | combination Emax [7] | combination Emax [8] | combination Emax [9] | combination Emax [10] | combination Emax [11] | combination Emax (EW-3 (Ewing's Sarcoma)) |
| --- | --- | --- | --- | --- | --- | --- | --- | --- | --- | --- | --- | --- | --- | --- |
| Cn1cnc2c(F)c(Nc3ccc(Br)cc3Cl)c(C(=O)NOCCO)cc21 [Selumetinib] + CCN(CCO)CCCOc1ccc2c(Nc3cc(CC(=O)Nc4cccc(F)c4)[nH]n3)ncnc2c1 [AZD2811] (first compound max 10 µM, 7x7, partner max 1 µM) | 0.602 | 0.7 | 0.252 | 0.492 | 0.273 | 0.702 | 0.398 | 0.891 | 0.713 | 0.25 | 0.412 | 0.372 | 0.313 | 0.444 |
| NC1(C(=O)N[C@@H](CCO)c2ccc(Cl)cc2)CCN(c2ncnc3[nH]ccc23)CC1 [Capivasertib] + C[C@@H]1COCCN1C2=NC(=NC(=C2)C3(CC3)[S@](=N)(=O)C)C4=C5C=CNC5=NC=C4 [AZD6738] (first compound max 10 µM, 7x7, partner max 10 µM) | 0.81 | 0.811 | 0.714 | 0.681 | 0.694 | 0.749 | 0.728 | 0.949 | 1 | 0.39 | 0.618 | 0.569 | 0.699 | 0.87 |
| COc1cccc(OCCCN)c1-c1cc(Nc2cnc(C#N)cn2)n[nH]1 [Prexasertib] + CCc1c2c(nc3ccc(O)cc13)-c1cc3c(c(=O)n1C2)COC(=O)[C@]3(O)CC [SN-38] (first compound max 1 µM, 7x7, partner max 0.3 µM) | 0.982 | 0.77 | 0.74 | 0.966 | 0.689 | 1 | 0.657 | 0.966 | 0.989 | 0.736 | 0.777 | 0.936 | 0.815 | 0.838 |
| CC1(C)CCC(CN2CCN(c3ccc(C(=O)NS(=O)(=O)c4ccc(NCC5CCOCC5)c([N+](=O)[O-])c4)c(Oc4cnc5[nH]ccc5c4)c3)CC2)=C(c2ccc(Cl)cc2)C1 [Venetoclax] + Cc1cc2ncnn2cc1Nc1ncc2c(n1)n(C1CCOCC1)c(=O)n2C [AZD7648] (first compound max 1 µM, 7x7, partner max 10 µM) | 0.414 | 0.455 | 0.354 | 0.572 | 0.275 | 0.481 | 0.271 | 1 | 0.383 | 0.134 | 0.173 | 0.264 | 0.489 | 0.735 |
| Cn1cnc2c(F)c(Nc3ccc(Br)cc3Cl)c(C(=O)NOCCO)cc21 [Selumetinib] + C=CCn1c(=O)c2cnc(Nc3ccc(N4CCN(C)CC4)cc3)nc2n1-c1cccc(C(C)(C)O)n1 [AZD1775] (first compound max 10 µM, partner max 1 µM) | 0.861 | 0.526 | 0.252 | 0.453 | 0.593 | 0.941 | 0.412 | 0.874 | 0.0588 | 0.229 | 0.417 | 0.423 | 0.659 | 0.269 |
| CC1(C)CCC(CN2CCN(c3ccc(C(=O)NS(=O)(=O)c4ccc(NCC5CCOCC5)c([N+](=O)[O-])c4)c(Oc4cnc5[nH]ccc5c4)c3)CC2)=C(c2ccc(Cl)cc2)C1 [Venetoclax] + Cn1cnc2c(F)c(Nc3ccc(Br)cc3Cl)c(C(=O)NOCCO)cc21 [Selumetinib] (first compound max 1 µM, 7x7, partner max 3 µM) | 0.541 | 0.26 | 0.223 | 0.273 | 0.206 | 0.521 | 0.347 | 1 | 0.286 | 0.145 | 0.289 | 0.246 | 0.171 | 0.643 |
| COc1nnc2ccc(N3CCC(c4ccc(OCCN5CCN(C)C(=O)[C@H]5C)cc4)CC3)nn12 [AZD5153] + Cc1c2c(nn1C)CSCc1cc(n(C)n1)CSc1cc(c3ccccc3c1)OCCCc1c(C(=O)O)n(C)c3c-2c(Cl)ccc13 [AZD5991] (first compound max 1 µM, 7x7, partner max 1 µM) | 0.539 | 0.938 | 0.559 | 0.582 | 0.633 | 0.753 | 0.886 | 1 | 1 | 0.291 | 0.673 | 0.705 | 0.982 | 0.908 |
| CC(=O)c1c(C)c2cnc(Nc3ccc(N4CCNCC4)cn3)nc2n(C2CCCC2)c1=O [Palbociclib] + CC1(C)CCC(CN2CCN(c3ccc(C(=O)NS(=O)(=O)c4ccc(NCC5CCOCC5)c([N+](=O)[O-])c4)c(Oc4cnc5[nH]ccc5c4)c3)CC2)=C(c2ccc(Cl)cc2)C1 [Venetoclax] (first compound max 10 µM, 7x7, partner max 1 µM) | 0.492 | 0.656 | 0.29 | 0.455 | 0.104 | 0.611 | 0.243 | 1 | 0.0811 | 0.132 | 0.284 | 0.145 | 0.235 | 0.599 |
